# Patent US20130116292A1, “NEURORESTORATION WITH R(+) PRAMIPEXOLE” (University of Virginia Patent Foundation, priority 2005, published 2013)
# Assays:
# [1] = test system: D2 family of dopamine receptors; details: cited from earlier work
# [2] = test system: oxidative stress produced by MPP+ (ETC complex I inhibitor); details: both in vitro and in vivo; cited from earlier work
# [3] = test system: mitochondrial transition pore (MTP); details: induced by MPP+ and other stimuli; cited from earlier work
# [4] = test system: dopamine neurons (MPTP toxicity); details: cellular and animal models of increased oxidative stress, including MPTP toxicity to dopamine neurons; cited from earlier work
# [5] = test system: patients with amyotrophic lateral sclerosis (ALS); details: 30 mg/day for up to 8 weeks
# Experimental: Phase I clinical studies with R(+) pramipexole were conducted in patients with amyotrophic lateral sclerosis (ALS), a fatal adult neurodegenerative disease arising from the loss of motor nerve cells. […] These reports included such things as regaining the ability to speak coherently, the ability to climb stairs again, and improved motor skills in their extremities, i.e. hands and/or fingers.
stability in aqueous solutions,Compound,agonism of the D2 family of dopamine receptors [1],effect on oxidative stress produced by MPP+ [2],effect on opening of the mitochondrial transition pore (MTP) [3],neuroprotection [4],patients reporting improvements in motor function [5],"dopamine agonist activity ([1]; Schneider and Mierau, J. Med. Chem. 1987)"
–,CCCN[C@H]1CCc2nc(N)sc2C1 [S(−) PPX],potent agonist,reduces oxidative stress,can block the opening,neuroprotective,–,–
stable in aqueous solutions,"CCCN[C@@H]1CCc2nc(N)sc2C1 [R(+) pramipexole, R-(+)-2-amino-4,5,6,7-tetrahydro-6-propylaminobenzathiazole]",–,–,–,–,approximately half the patients,very little
